Like-named read-outs stand apart in the source and are kept apart here.
Tests used:
[1] = target: T1, recombinant ROCK1 (amino acids 1-535) (Homo sapiens, UniProt Q13464); experiment: Z'-lyte kinase assay, ROCK1; assay type: biochemical; conditions: for inhibition at 0.5 µM / inhibition at 3 µM: read-out: ROCK1 % inh
T1 construct: recombinant ROCK1 (amino acids 1-535) and ROCK2; purchased ThermoFisher Scientific
Protocol: (§1) Determination of compounds ROCK inhibitory activity in vitro (Z'lyte assay): recombinant ROCK1 (amino acids 1-535) and ROCK2 (amino acids 1-552) proteins were purchased from ThermoFisher Scientific. Compounds activities were measured by Z′-lyte kinase kit (ThermoFisher Scientific) and IC50s were calculated.
(§2) Table 2, below, provides in vitro and cellular inhibition of ROCKs by compounds of the invention. Compounds activities were measured by Z′-lyte kinase kit (ThermoFisher Scientific). […] IC50s were calculated using the GraphPad Prism software with kinase activities data that were collected from points 9 serial dilution of compounds treatment. The ROCK inhibition in A7R5 cells and NIH3T3 (Acta2-Luc) cells was performed as described above.

[2] = system: luciferase reporter driven by the human ACTA2 gene promoter in NIH3T3 cells; experiment: NIH3T3 cells Acta2-promoter driven-luciferase assay; assay type: cell-based; conditions: plus TGF 1, 24 hr, read-out: NIH3T3, Acta2-luc, IC50
Protocol: NIH3T3 cells Acta2-promoter driven-luciferase assay: A NIH3T3 cell line stably expressing a luciferase reporter driven by the human ACTA2 gene promoter (−1000-1 bp) was established (NIH3T3-Acta2-luciferase). The cells were plated to confluence and treated with the test compounds plus TGF 1 for 24 hr. Cells were then lysed and luciferase activity was measured using the LightSwitch luciferase kit from Active Motif.

[3] = system: phospho-myosin light chains (ppMlc, Thr18/Ser19) in A7R5 cells; experiment: A7R5 in-cell ELISA, phospho-myosin light chain; assay type: cell-based, rat; conditions: for IC50 / inhibition at 10 µM: Rattus norvegicus, A7R5 cells; for inhibition at 10 µM: read-out: pMLC % inh A7R5; for cellular ROCK inhibition compared with Comparative Example 2: phosphorylation of the ROCK target pMLC in A7R5 cells
Protocol: Determination of compounds ROCK inhibitory activity in A7R5 cells: rat aortic smooth muscle cell line A7R5 cells were maintained and treated in DMEM medium with 10% of fetal bovine serum. Cells were seeded with density of 5,000 cells/well in 96-well plates for 24 hours and subsequently treated 90 min with testing compounds. Cells were then fixed and processed according to the In-Cell ELISA Colorimetric Detection Kit manual (Thermo Scientific). Cellular phospho-myosin light chains (ppMlc, Thr18/Ser19) levels were determined after treatments of DMSO control or test compounds using the In-Cell ELISA kit. The percent inhibition rate was calculated by applying the data obtained with 1 μM (or 10 μM) compound treatment to the formula, [1-(compound/DMSO)]×100%. ppMlc data obtained with 9 points 2-fold serial dilution of compounds were applied to the nonlinear regression curve fit function of the GraphPad Prism software to calculate the In cell IC50s.
A7R5 cells were treated with 9 points 2 fold serial dilution of compounds and ppMlc (T18/S19) levels were determined in order to calculate cellular IC50s of the compounds.
Two steps of measurements were adopted for pMLC/A7R5 IC50. Percent inhibition rates were calculated with a single dose (1 μM or 10 μM) compounds treatment to screen for active compounds and then cellular IC50s were measured only in compounds that have over 50% of inhibition rates.

[4] = target: T2, recombinant ROCK2 (amino acids 1-552) (Homo sapiens, UniProt O75116); experiment: Z'-lyte kinase assay, ROCK2; assay type: biochemical; conditions: for inhibition at 1 µM / inhibition at 3 µM / inhibition at 0.5 µM: read-out: ROCK2 % inh
T2 construct: ROCK2 (amino acids 1-552) proteins were purchased from ThermoFisher Scientific; purchased ThermoFisher Scientific
Protocol: as §1, §2

[5] = 1.5 h, 90 min, read-out: pMLC IC50 A7R5

T1 sequence (Q13464 1-535): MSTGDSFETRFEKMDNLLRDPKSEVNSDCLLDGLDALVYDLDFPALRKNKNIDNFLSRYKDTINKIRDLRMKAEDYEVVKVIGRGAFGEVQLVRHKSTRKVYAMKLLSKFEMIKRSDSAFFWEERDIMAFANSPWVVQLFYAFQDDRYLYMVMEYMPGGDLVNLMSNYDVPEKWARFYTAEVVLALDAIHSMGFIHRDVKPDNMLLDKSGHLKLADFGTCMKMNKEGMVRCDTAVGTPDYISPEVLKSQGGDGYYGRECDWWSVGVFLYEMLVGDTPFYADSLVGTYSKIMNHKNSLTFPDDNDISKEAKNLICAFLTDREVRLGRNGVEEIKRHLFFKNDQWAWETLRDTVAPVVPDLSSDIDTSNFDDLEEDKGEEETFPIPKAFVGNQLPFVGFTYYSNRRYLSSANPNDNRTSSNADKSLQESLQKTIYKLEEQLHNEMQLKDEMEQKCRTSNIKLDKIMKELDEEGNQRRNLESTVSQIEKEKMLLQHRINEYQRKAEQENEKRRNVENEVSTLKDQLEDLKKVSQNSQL
T2 sequence (O75116 1-552): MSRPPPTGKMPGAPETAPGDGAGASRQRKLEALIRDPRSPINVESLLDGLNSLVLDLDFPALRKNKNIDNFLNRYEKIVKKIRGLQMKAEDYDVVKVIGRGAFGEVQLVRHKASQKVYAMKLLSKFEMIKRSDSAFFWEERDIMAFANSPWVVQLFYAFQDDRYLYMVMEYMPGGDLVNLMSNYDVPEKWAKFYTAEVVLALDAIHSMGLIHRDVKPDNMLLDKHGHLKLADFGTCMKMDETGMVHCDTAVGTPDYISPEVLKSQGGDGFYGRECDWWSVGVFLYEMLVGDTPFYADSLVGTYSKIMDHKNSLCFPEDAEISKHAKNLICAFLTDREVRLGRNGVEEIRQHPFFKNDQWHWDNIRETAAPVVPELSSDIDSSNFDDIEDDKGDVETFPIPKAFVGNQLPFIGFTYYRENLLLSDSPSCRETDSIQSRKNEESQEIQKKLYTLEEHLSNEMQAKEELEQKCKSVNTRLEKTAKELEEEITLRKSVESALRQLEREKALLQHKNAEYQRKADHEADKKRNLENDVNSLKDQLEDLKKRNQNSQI

| Compound | IC50 [1] [µM] | IC50 [3, 5] [µM] | IC50 [4] [µM] | inhibition at 0.5 µM [1] [%] | inhibition at 1 µM [4] [%] | inhibition at 3 µM [1] [%] | inhibition at 3 µM [4] [%] | inhibition at 0.5 µM [4] [%] | IC50 ([3]; ppMlc (T18/S19), 9 points 2 fold serial dilution, read-out: ppMIc IC50) [µM] | IC50 [2] [µM] | inhibition at 10 µM [3] [%] | cellular ROCK inhibition compared with Comparative Example 2 [3] |
| --- | --- | --- | --- | --- | --- | --- | --- | --- | --- | --- | --- | --- |
| CNC(C(=O)N(CCN(C)C)c1ccc2[nH]ncc2c1)c1cccc(OC)c1 (stereo not drawn) [Example 7, N-(2-(dimethylamino)ethyl)-N-(1H-indazol-5-yl)-2-(3-methoxyphenyl)-2-(methylamino)acetamide] | – | – | 1.63 | 16 | 11 | – | – | – | – | – | 2 | – |
| CCNC(C(=O)Nc1ccc2[nH]ncc2c1)c1cccc(F)c1 (stereo not drawn) [Example 51, 2-(ethylamino)-2-(3-fluorophenyl)-N-(1H-indazol-5-yl)acetamide] | – | 1.66 | 0.053 | – | – | – | – | – | – | 5.45 | – | – |
| CNC(C(=O)Nc1ccc2[nH]ncc2c1)c1ccc(C)cc1 (stereo not drawn) [Example 28, N-(1H-indazol-5-yl)-2-(methylamino)-2-(p-tolyl)acetamide] | 0.0178 | 0.834 | 0.0212 | – | – | 99 | 98.8 | – | – | – | – | – |
| NC(C(=O)Nc1ccc2[nH]ncc2c1)c1ccccc1F (stereo not drawn) [Comp7, reference compound] | 0.166 | 18.4 | 0.303 | – | – | 100 | 100 | – | – | – | – | – |
| CNC(C(=O)Nc1ccc2[nH]ncc2c1)c1cccc(F)c1 (stereo not drawn) [Example 53, 2-(3-fluorophenyl)-N-(1H-indazol-5-yl)-2-(methylamino)acetamide] | – | 0.914 | 0.041 | – | – | – | – | – | – | 1.16 | – | – |
| CC(C)NC(C(=O)Nc1ccc2[nH]ncc2c1)c1ccc(F)cc1 (stereo not drawn) [Example 20, 2-(4-fluorophenyl)-N-(1H-indazol-5-yl)-2-(isopropylamino)acetamide] | 0.561 | 2.51 | 0.152 | – | – | 18.4 | 94.6 | – | – | – | – | – |
| Cc1ccc(C(NC(C)(C)C)C(=O)Nc2ccc3[nH]ncc3c2)cc1 (stereo not drawn) [Example 38, 2-(tert-butylamino)-N-(1H-indazol-5-yl)-2-(p-tolyl)acetamide] | 0.0614 | 1.34 | 0.0274 | – | – | 100 | 100 | – | – | – | – | – |
| NC(C(=O)Nc1ccc2[nH]ncc2c1)c1cccc(F)c1 (stereo not drawn) [Comp6, reference compound] | 0.0413 | 6.99 | 0.0418 | – | – | 99 | 98.8 | – | – | – | – | – |
| CC(C)NC(C(=O)Nc1ccc2[nH]ncc2c1)c1ccc(Cl)cc1 (stereo not drawn) [Example 18, 2-(4-chlorophenyl)-N-(1H-indazol-5-yl)-2-(isopropylamino)acetamide] | – | 2.51 | – | – | – | 89.6 | 94.1 | – | – | – | – | enhanced |
| O=C(Nc1ccc2[nH]ncc2c1)C1Cc2ccccc2CN1 (stereo not drawn) [Example 4, N-(1H-indazol-5-yl)-1,2,3,4-tetrahydroisoquinoline-3-carboxamide] | > 1 | – | > 1 | – | – | – | – | – | – | – | 18 | – |
| Cc1ccc(C(NC2CC2)C(=O)Nc2ccc3[nH]ncc3c2)cc1 (stereo not drawn) [Example 31, 2-(cyclopropylamino)-N-(1H-indazol-5-yl)-2-(p-tolyl)acetamide] | 0.228 | – | > 1 | – | – | – | – | – | – | – | 35 | – |
| NC(C(=O)Nc1ccc2[nH]ncc2c1)c1ccccc1 (stereo not drawn) [Comp3, reference compound] | – | 10.9 | – | – | – | 91.5 | 97.4 | – | – | – | – | – |
| CCNC(C(=O)Nc1ccc2[nH]ncc2c1)c1cccc(Cl)c1 (stereo not drawn) [Example 58, 2-(3-chlorophenyl)-2-(ethylamino)-N-(1H-indazol-5-yl)acetamide] | – | 0.722 | 0.064 | 85 | – | – | – | 61 | – | 1.09 | – | – |
| CC(C)NC(C(=O)Nc1ccc2[nH]ncc2c1)c1ccccc1 (stereo not drawn) [Example 22, N-(1H-indazol-5-yl)-2-(isopropylamino)-2-phenylacetamide] | – | 1.8 | – | – | – | 94.3 | 96.7 | – | – | – | – | – |
| CNC(C(=O)Nc1ccc2[nH]ncc2c1)c1ccc(F)cc1 (stereo not drawn) [Example 19, 2-(4-fluorophenyl)-N-(1H-indazol-5-yl)-2-(methylamino)acetamide] | 0.173 | 1.6 | 0.16 | – | – | 21.4 | 96.6 | – | – | – | – | – |
| COc1ccc(C(N)C(=O)Nc2ccc3[nH]ncc3c2)cc1 (stereo not drawn) [Comp4, reference compound] | – | 6.16 | – | – | 96.5 | 95.8 | – | – | – | – | – | – |

The next lines start with results.

| IC50 [1] [µM] | IC50 [3, 5] [µM] | IC50 [4] [µM] | inhibition at 0.5 µM [1] [%] | inhibition at 1 µM [4] [%] | inhibition at 3 µM [1] [%] | inhibition at 3 µM [4] [%] | inhibition at 0.5 µM [4] [%] | IC50 ([3]; ppMlc (T18/S19), 9 points 2 fold serial dilution, read-out: ppMIc IC50) [µM] | Compound | IC50 [2] [µM] | inhibition at 10 µM [3] [%] | cellular ROCK inhibition compared with Comparative Example 2 [3] |
| --- | --- | --- | --- | --- | --- | --- | --- | --- | --- | --- | --- | --- |
| 0.0088 | 0.454 | 0.016 | – | – | – | – | – | – | CNC(C(=O)Nc1ccc2[nH]ncc2c1)c1cccc(Cl)c1 (stereo not drawn) [Example 42, 2-(3-chlorophenyl)-N-(1H-indazol-5-yl)-2-(methylamino)acetamide] | 0.882 | – | – |
| 0.016 | 0.502 | 0.013 | – | – | 99 | 98.8 | – | – | CCNC(C(=O)Nc1ccc2[nH]ncc2c1)c1ccc(C)cc1 (stereo not drawn) [Example 30, 2-(ethylamino)-N-(1H-indazol-5-yl)-2-(p-tolyl)acetamide] | 0.96 | – | – |
| – | 0.2 | 0.014 | – | – | – | – | – | – | CN[C@@H](C(=O)Nc1ccc2[nH]ncc2c1)c1cccc(OC)c1 [Example 54, (R)-N-(1H-indazol-5-yl)-2-(3-methoxyphenyl)-2-(methylamino)acetamide] | 0.268 | – | – |
| – | 0.589 | 0.03 | – | – | – | – | – | – | CN[C@H](C(=O)Nc1ccc2[nH]ncc2c1)c1cccc(OC)c1 [Example 55, (S)-N-(1H-indazol-5-yl)-2-(3-methoxyphenyl)-2-(methylamino)acetamide] | 0.773 | – | – |
| – | 0.532 | 0.034 | – | – | – | – | – | – | CNC(C(=O)Nc1ccc2[nH]ncc2c1)c1cccc(C)c1 (stereo not drawn) [Example 52, N-(1H-indazol-5-yl)-2-(methylamino)-2-(m-tolyl)acetamide] | 1.51 | – | – |
| – | 0.339 | 0.025 | – | – | – | – | 95 | – | CNC(C(=O)Nc1ccc2[nH]ncc2c1)c1ccc(OC)c(F)c1 (stereo not drawn) [Example 57, 2-(3-fluoro-4-methoxyphenyl)-N-(1H-indazol-5-yl)-2-(methylamino)acetamide] | 0.473 | – | – |
| 0.00389 | 0.224 | 0.0036 | – | – | 99 | 98.8 | – | – | CNC(C(=O)Nc1ccc2[nH]ncc2c1)c1ccc(OC)cc1 (stereo not drawn) [Example 24, N-(1H-indazol-5-yl)-2-(4-methoxyphenyl)-2-(methylamino)acetamide] | 0.321 | – | – |
| 0.0326 | 0.207 | – | – | – | – | – | 100 | 0.207 | CNC(C(=O)Nc1ccc2[nH]ncc2c1)c1ccc(Oc2ccc(OC)cc2)cc1 (stereo not drawn) [Example 14, N-(1H-indazol-5-yl)-2-(4-(4-methoxyphenoxy)phenyl)-2-(methylamino)acetamide] | 0.678 | – | – |
| 0.024 | 0.261 | 0.012 | – | – | 99 | 98.8 | – | – | CCNC(C(=O)Nc1ccc2[nH]ncc2c1)c1ccc(OC)cc1 (stereo not drawn) [Example 26, 2-(ethylamino)-N-(1H-indazol-5-yl)-2-(4-methoxyphenyl)acetamide] | 0.845 | – | – |
| – | 0.546 | 0.046 | – | – | – | – | – | – | CNC(C(=O)Nc1ccc2[nH]ncc2c1)c1ccc(OC(F)(F)F)cc1 (stereo not drawn) [Example 56, N-(1H-indazol-5-yl)-2-(methylamino)-2-(4-(trifluoromethoxy)phenyl)acetamide] | 0.666 | – | – |
| 0.0038 | 0.252 | 0.015 | – | 99 | 93.2 | – | – | – | CNC(C(=O)Nc1ccc2[nH]ncc2c1)c1ccc(Cl)cc1 (stereo not drawn) [Example 16, 2-(4-chlorophenyl)-N-(1H-indazol-5-yl)-2-(methylamino)acetamide] | 0.915 | – | enhanced |
